Laboratory results published in article PMC11079024, “Identification of a family of species-selective complex I inhibitors as potential anthelmintics” (Nature Communications, 2024).
Where “and” joins values, the source holds several entries; their conditions need not be identical. Identical values can stand only once. Like-named read-outs stand apart in the source and are kept apart here.

Key:
L1 wild-type C. elegans [1] = assay: 15-hour motility assay with drug alone (no KCN); assay type: cell-based, Caenorhabditis elegans; conditions: without KCN, 15-hour; for Value relative to DMSO control, drug alone (without KCN), Mean: mean of replicates; for Value relative to DMSO control, drug alone (without KCN): single replicates
L1 wild-type C. elegans [2] = assay: whole plant or invertebrate; conditions: Caenorhabditis elegans, 15 h, read-out: C. elegans KCN survival assay LC50
L1 wild-type C. elegans [3] = conditions: drug + KCN, 15-hour; for KCN survival assay value relative to DMSO control, Mean: mean of replicates; for KCN survival assay value relative to DMSO control: single replicates

Compound	Value relative to DMSO control, drug alone (without KCN), Mean (L1 wild-type C. elegans [1]; 0.025 µM)	Value relative to DMSO control, drug alone (without KCN) (L1 wild-type C. elegans [1]; 0.025 µM)	Value relative to DMSO control, drug alone (without KCN), Mean (L1 wild-type C. elegans [1]; 0.05 µM)	Value relative to DMSO control, drug alone (without KCN) (L1 wild-type C. elegans [1]; 0.05 µM)	Value relative to DMSO control, drug alone (without KCN), Mean (L1 wild-type C. elegans [1]; 0.1 µM)	Value relative to DMSO control, drug alone (without KCN) (L1 wild-type C. elegans [1]; 0.1 µM)	Value relative to DMSO control, drug alone (without KCN), Mean (L1 wild-type C. elegans [1]; 0.2 µM)	Value relative to DMSO control, drug alone (without KCN) (L1 wild-type C. elegans [1]; 0.2 µM)	Value relative to DMSO control, drug alone (without KCN), Mean (L1 wild-type C. elegans [1]; 0.4 µM)	Value relative to DMSO control, drug alone (without KCN) (L1 wild-type C. elegans [1]; 0.4 µM)	Value relative to DMSO control, drug alone (without KCN), Mean (L1 wild-type C. elegans [1]; 0.8 µM)	Value relative to DMSO control, drug alone (without KCN) (L1 wild-type C. elegans [1]; 0.8 µM)	Value relative to DMSO control, drug alone (without KCN), Mean (L1 wild-type C. elegans [1]; 3.1 µM)	Value relative to DMSO control, drug alone (without KCN) (L1 wild-type C. elegans [1]; 3.1 µM)	Value relative to DMSO control, drug alone (without KCN), Mean (L1 wild-type C. elegans [1]; 6.3 µM)	Value relative to DMSO control, drug alone (without KCN) (L1 wild-type C. elegans [1]; 6.3 µM)	Value relative to DMSO control, drug alone (without KCN), Mean (L1 wild-type C. elegans [1]; 12.5 µM)	Value relative to DMSO control, drug alone (without KCN) (L1 wild-type C. elegans [1]; 12.5 µM)	Value relative to DMSO control, drug alone (without KCN), Mean (L1 wild-type C. elegans [1]; 25 µM)	Value relative to DMSO control, drug alone (without KCN) (L1 wild-type C. elegans [1]; 25 µM)	further results
Cc1cc(C(C#N)c2ccc(Cl)cc2)c(Cl)cc1NC(=O)c1cc(I)cc(I)c1O (centres unmarked) [Closantel]	1.096	1.270 and 1.000 and 1.019	0.995	1.190 and 0.812 and 0.983	0.999	1.131 and 0.827 and 1.040	1.003	1.030 and 1.024 and 0.957	0.958	1.006 and 0.910 and 0.957	1.081	1.194 and 1.047 and 1.003	0.969	1.240 and 0.805 and 0.863	1.048	1.218 and 0.919 and 1.007	1.059	1.241 and 0.872 and 1.065	0.703	0.678 and 0.775 and 0.655	LC50 (L1 wild-type C. elegans [2]): 332 nM; KCN survival assay value relative to DMSO control, Mean (L1 wild-type C. elegans [3]; 0.025 µM): 0.976; KCN survival assay value relative to DMSO control (L1 wild-type C. elegans [3]; 0.025 µM): 0.959 and 0.928 and 1.042; KCN survival assay value relative to DMSO control, Mean (L1 wild-type C. elegans [3]; 0.05 µM): 0.987; KCN survival assay value relative to DMSO control (L1 wild-type C. elegans [3]; 0.05 µM): 1.068 and 0.937 and 0.955; KCN survival assay value relative to DMSO control, Mean (L1 wild-type C. elegans [3]; 0.1 µM): 0.937; KCN survival assay value relative to DMSO control (L1 wild-type C. elegans [3]; 0.1 µM): 0.967 and 0.903 and 0.941; KCN survival assay value relative to DMSO control, Mean (L1 wild-type C. elegans [3]; 0.2 µM): 0.886; KCN survival assay value relative to DMSO control (L1 wild-type C. elegans [3]; 0.2 µM): 1.054 and 0.849 and 0.755; KCN survival assay value relative to DMSO control, Mean (L1 wild-type C. elegans [3]; 0.4 µM): 0.363; KCN survival assay value relative to DMSO control (L1 wild-type C. elegans [3]; 0.4 µM): 0.480 and 0.444 and 0.164; KCN survival assay value relative to DMSO control, Mean (L1 wild-type C. elegans [3]; 0.8 µM): 0.018; KCN survival assay value relative to DMSO control, Mean (L1 wild-type C. elegans [3]; 3.1 µM): 0.000; KCN survival assay value relative to DMSO control, Mean (L1 wild-type C. elegans [3]; 6.3 µM): 0.000; KCN survival assay value relative to DMSO control (L1 wild-type C. elegans [3]; 6.3 µM): 0.000; KCN survival assay value relative to DMSO control, Mean (L1 wild-type C. elegans [3]; 12.5 µM): 0.0065; KCN survival assay value relative to DMSO control, Mean (L1 wild-type C. elegans [3]; 25 µM): 0.0037
O=C(Nc1ccc(Oc2ccc(Cl)cc2)c(Cl)c1)c1cc(I)cc(I)c1O [Rafoxanide]	1.251	1.299 and 1.275 and 1.179	1.063	1.000 and 1.187	0.952	0.779 and 1.140 and 0.937	0.871	0.876 and 1.068 and 0.668	0.805	0.814 and 0.980 and 0.622	0.942	0.867 and 0.978 and 0.981	0.954	1.089 and 0.794 and 0.978	1.113	1.082 and 1.203 and 1.055	1.298	1.422 and 1.293 and 1.177	1.108	1.103 and 1.144 and 1.075	LC50 (L1 wild-type C. elegans [2]): 141 nM; KCN survival assay value relative to DMSO control, Mean (L1 wild-type C. elegans [3]; 0.025 µM): 0.992; KCN survival assay value relative to DMSO control (L1 wild-type C. elegans [3]; 0.025 µM): 1.081 and 1.011 and 0.883; KCN survival assay value relative to DMSO control, Mean (L1 wild-type C. elegans [3]; 0.05 µM): 0.890; KCN survival assay value relative to DMSO control (L1 wild-type C. elegans [3]; 0.05 µM): 0.979 and 0.794 and 0.899; KCN survival assay value relative to DMSO control, Mean (L1 wild-type C. elegans [3]; 0.1 µM): 0.788; KCN survival assay value relative to DMSO control (L1 wild-type C. elegans [3]; 0.1 µM): 1.030 and 0.770 and 0.563; KCN survival assay value relative to DMSO control, Mean (L1 wild-type C. elegans [3]; 0.2 µM): 0.261; KCN survival assay value relative to DMSO control, Mean (L1 wild-type C. elegans [3]; 0.4 µM): 0.0026; KCN survival assay value relative to DMSO control, Mean (L1 wild-type C. elegans [3]; 0.8 µM): 0.0007; KCN survival assay value relative to DMSO control, Mean (L1 wild-type C. elegans [3]; 3.1 µM): 0.000; KCN survival assay value relative to DMSO control (L1 wild-type C. elegans [3]; 3.1 µM): 0.000; KCN survival assay value relative to DMSO control, Mean (L1 wild-type C. elegans [3]; 6.3 µM): 0.0019; KCN survival assay value relative to DMSO control, Mean (L1 wild-type C. elegans [3]; 12.5 µM): 0.000; KCN survival assay value relative to DMSO control (L1 wild-type C. elegans [3]; 12.5 µM): 0.000; KCN survival assay value relative to DMSO control, Mean (L1 wild-type C. elegans [3]; 25 µM): 0.000; KCN survival assay value relative to DMSO control (L1 wild-type C. elegans [3]; 25 µM): 0.000
